Assay results from US20240208954A1, “OXADIAZOLE COMPOUND, PREPARATION METHOD THEREFOR, PHARMACEUTICAL COMPOSITION AND USE THEREOF” (SHANGHAI INSTITUTE OF MATERIA MEDICA, CHINESE ACADEMY OF …, priority 2020, published 2024).
Several values for one entry are separate records, joined by “and”; a condition that tells them apart may be missing. Identical values can stand only once. Like-named read-outs stand apart in the source and are kept apart here.

Columns and labels:
[1] = Preliminary assessment of pharmacokinetics in mice; type: in vivo, CD-1 mice
Method: Dosing Regimen 9 CD-1 mice, male, weighing 20-26 g, were randomly divided into 3 groups with 3 mice in each group. The test compounds were administered intragastric, intravenously or intraperitoneally according to the following protocol. The mice were fasted for 12 h before the test and drank water freely. Food was consumed uniformly 2 h after administration. [table] The intragastric administration solution was prepared with DMSO/0.5% HPMC(5/95, v/v) to the final concentration. Intravenous and intraperitoneal administration solution was formulated with DMSO/PEG300/EtOH/NaCl(5/40/5/50, v/v/v). The sample of the administration solution was left (50 μL of the solution was mixed with 50 μL of DMSO before and after the administration, respectively) for test. The drug was given according to the above dose, the time of administration was recorded, and 20 μL of blood was taken from the femoral plexus of mice at the above set time points and placed in heparinized tubes. The blood was immediately centrifuged at 11000 rpm for 5 min. 10 μL of plasma was immediately and accurately sucked into a centrifuge tube prefilled with 100 μL of PK-IS solution (prepared with methanol: acetonitrile (1:1,v/v)), well mixed, and freezed at −20° C. for test.

S1P2 = S1P2 (Homo sapiens, UniProt O95136); assay: Subtype selectivity study, method of Experimental Example 1; type: cell-based
Method: (§1) Experimental method: CHO-K1/Ga15/EDG1 cells stably expressing EDG1 receptor were cultured in a 10 cm culture dish in a 37° C./5% CO2incubator, and digested when the confluence rate reached 80%-85%. The cells in collected cell suspension were inoculated into 384 microtiter plates at appropriate density, and then placed in a 37° C./5% CO2 incubator and continue to incubate for at least 18 hours before using for experiments. After 18-20 hours, the cell culture plat was taken out and added with dye working solution, and then the plate was placed in a 37° C./5% CO2 incubator for 1 hour, and finally equilibrated at room temperature for 15 minutes. Positive agonist working solution was added, and RFU values were detected and recorded. The 384 microplates, cell plates and tip box with positive agonist working solution were placed into FLIPRTM TETRA and the agonist mode assay program was run with an overall assay time of 120 seconds. The positive agonist working fluid was added to the cell culture plate at the 21st second. 384 microplate, cell plate and gun head box containing the positive antagonist working fluid were put into the FLIPRTM TETRA. The antagonistic mode detection program, the overall detection time of the instrument was 120 seconds, and positive antagonist working solution was added to the cell culture plate at the 21st second. Data processing: Raw data were obtained via ScreenWorks (version 3.1) and saved as *FMD files on the […] computer network system. Data were collected and analyzed using Excel and GraphPad Prism 6 software programs. […] The four-parameter equation was as follows: y=Bottom+(Top-Bottom)/(1+10^((LogEC50/IC50-X)*HillSlope)), wherein X is the Log value of the concentration and Y was the inhibition rate. The S1P receptor selectivity was tested for different subtypes using the method described in Experimental Example 1.

S1P5 = S1P5 (Homo sapiens, UniProt Q9H228); assay: as above; type: cell-based
Method: as §1

S1P4 = biological target: T1, S1P4 (Homo sapiens, UniProt O95977); assay: as above; type: cell-based
T1 sequence (O95977 1-384): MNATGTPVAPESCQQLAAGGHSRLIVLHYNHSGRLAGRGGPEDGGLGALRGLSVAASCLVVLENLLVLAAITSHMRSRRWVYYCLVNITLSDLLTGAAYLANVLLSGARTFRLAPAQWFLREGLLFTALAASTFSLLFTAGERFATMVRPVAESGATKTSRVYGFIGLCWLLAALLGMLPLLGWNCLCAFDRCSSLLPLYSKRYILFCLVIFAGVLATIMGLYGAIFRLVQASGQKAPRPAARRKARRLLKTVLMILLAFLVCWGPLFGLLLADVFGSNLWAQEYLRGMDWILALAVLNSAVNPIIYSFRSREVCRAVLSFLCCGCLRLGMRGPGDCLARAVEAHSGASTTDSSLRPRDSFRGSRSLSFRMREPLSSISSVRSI
Method: as §1

S1P receptor = assay: Subtype selectivity study of compound A1, overall statement; type: cell-based; conditions: especially for S1P1 and S1P5 subtypes
Method: The S1P receptor selectivity was tested for different subtypes using the method described in Experimental Example 1.

Chain of S1P5 (Q9H228 whole entry, species assumed): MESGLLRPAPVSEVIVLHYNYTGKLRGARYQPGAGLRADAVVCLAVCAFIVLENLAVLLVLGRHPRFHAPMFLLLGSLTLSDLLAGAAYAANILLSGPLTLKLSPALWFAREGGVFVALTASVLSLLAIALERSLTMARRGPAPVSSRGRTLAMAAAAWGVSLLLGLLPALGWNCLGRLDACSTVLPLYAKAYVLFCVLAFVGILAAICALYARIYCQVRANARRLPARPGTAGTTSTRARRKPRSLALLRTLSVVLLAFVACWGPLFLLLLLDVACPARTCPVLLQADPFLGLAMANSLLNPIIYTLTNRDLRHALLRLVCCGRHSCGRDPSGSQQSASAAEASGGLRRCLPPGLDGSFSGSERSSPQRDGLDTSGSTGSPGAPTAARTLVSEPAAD
Chain of S1P2 (O95136 whole entry, species assumed): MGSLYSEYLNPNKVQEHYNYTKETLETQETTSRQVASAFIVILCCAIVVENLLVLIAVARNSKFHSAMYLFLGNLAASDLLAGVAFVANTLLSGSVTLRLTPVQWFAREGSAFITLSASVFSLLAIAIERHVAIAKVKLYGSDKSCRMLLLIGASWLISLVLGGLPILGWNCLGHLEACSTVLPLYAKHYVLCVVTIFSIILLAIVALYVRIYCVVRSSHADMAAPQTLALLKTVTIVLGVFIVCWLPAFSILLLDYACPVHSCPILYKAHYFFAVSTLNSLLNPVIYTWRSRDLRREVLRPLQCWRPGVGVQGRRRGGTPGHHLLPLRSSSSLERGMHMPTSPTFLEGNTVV

Q: For `CC(C)Oc1ccc(-c2nc(-c3ccc(CN4CC(C(=O)O)C4)c4ccccc34)no2)cc1C#N.Cl` [Compound A1, 1-((4-(5-(3-cyano-4-isopropoxyphenyl)-1,2,4-oxadiazol-3-yl)naphthalen-1-yl)methyl) azetidine-3-carboxylic acid hydrochloric acid], which concentration at 0.25 h ([1]; male, CD-1, mouse, plasma, po, 2 mg/kg, title: oral 2 mg/kg, 0.25 h, mean, read-out: Concentration of A1 Drug in Plasma of Mice) is on record?
A: The concentration at 0.25 h was 878 ng/mL.

Q: And the concentration at 0.75 h ([1]; male, CD-1, mouse, plasma, po, 2 mg/kg, title: oral 2 mg/kg, 0.75 h, individual animals 4-6, read-out: Concentration of A1 Drug in Plasma of Mice)?
A: The concentration at 0.75 h was 178 ng/mL.

Q: What about the concentration at 0.75 h ([1]; male, CD-1, mouse, plasma, po, 2 mg/kg, title: oral 2 mg/kg, 0.75 h, mean, read-out: Concentration of A1 Drug in Plasma of Mice) of the same compound?
A: The concentration at 0.75 h was 169 ng/mL.

Q: What about the concentration at 2 h ([1]; male, CD-1, mouse, plasma, po, 2 mg/kg, title: oral 2 mg/kg, 2.00 h, individual animals 4-6, read-out: Concentration of A1 Drug in Plasma of Mice) of the same compound?
A: The concentration at 2 h was 49.2 ng/mL.

Q: And the concentration at 2 h ([1]; male, CD-1, mouse, plasma, po, 2 mg/kg, title: oral 2 mg/kg, 2.00 h, mean, read-out: Concentration of A1 Drug in Plasma of Mice)?
A: Its concentration at 2 h is 49.8 ng/mL.

Q: And the concentration at 4 h ([1]; male, CD-1, mouse, plasma, po, 2 mg/kg, title: oral 2 mg/kg, 4.00 h, mean, read-out: Concentration of A1 Drug in Plasma of Mice)?
A: Its concentration at 4 h is 8.43 ng/mL.

Q: What about the concentration at 8 h ([1]; male, CD-1, mouse, plasma, po, 2 mg/kg, title: oral 2 mg/kg, 8.00 h, mean, read-out: Concentration of A1 Drug in Plasma of Mice) of the same compound?
A: The concentration at 8 h was 3.97 ng/mL.

Q: What about the concentration at 24 h ([1]; male, CD-1, mouse, plasma, po, 2 mg/kg, title: oral 2 mg/kg, 24.0 h, individual animals 4-6, read-out: Concentration of A1 Drug in Plasma of Mice) of the same compound?
A: The concentration at 24 h was 0.5 ng/mL.

Q: What about the concentration at 24 h ([1]; male, CD-1, mouse, plasma, po, 2 mg/kg, title: oral 2 mg/kg, 24.0 h, mean, read-out: Concentration of A1 Drug in Plasma of Mice) of the same compound?
A: The concentration at 24 h was 0.6 ng/mL.

Q: What about the “Concentration of A1 Drug in Plasma of Mice” value (shortened to “Concentration of A1 Drug”) ([1]; title: intraperitoneal 20 mg/kg, 0.25 h, individual animals 1-3) of the same compound?
A: The value was 1095 ng/mL and 1070 ng/mL and 3041 ng/mL.

Q: And the “Concentration of A1 Drug” value ([1]; title: intraperitoneal 20 mg/kg, 0.50 h, individual animals 1-3)?
A: The value was 1574 ng/mL and 1388 ng/mL and 3514 ng/mL.

Q: What about the “Concentration of A1 Drug” value ([1]; title: intraperitoneal 20 mg/kg, 1.00 h, individual animals 1-3) of the same compound?
A: Its value is 1914 ng/mL and 1843 ng/mL and 4055 ng/mL.

Q: And the “Concentration of A1 Drug” value ([1]; title: intraperitoneal 20 mg/kg, 2.00 h, individual animals 1-3)?
A: Its value is 571 ng/mL and 1318 ng/mL and 1662 ng/mL.

Q: And the “Concentration of A1 Drug” value ([1]; title: intraperitoneal 20 mg/kg, 4.00 h, individual animals 1-3)?
A: Its value is 146 ng/mL and 215 ng/mL and 65.0 ng/mL.

Q: And the “Concentration of A1 Drug” value ([1]; title: intraperitoneal 20 mg/kg, 8.00 h, individual animals 1-3)?
A: Its value is 25.8 ng/mL and 36.4 ng/mL and 11.5 ng/mL.

Q: What about the “Concentration of A1 Drug” value ([1]; title: intraperitoneal 20 mg/kg, 24.0 h, individual animals 1-3) of the same compound?
A: The value was 3.80 ng/mL.

Q: And the “Concentration of A1 Drug” value ([1]; title: oral 2 mg/kg, 0.05 h, individual animals 4-6, 2 mg/kg)?
A: Its value is 1521 ng/mL and 2513 ng/mL.

Q: And the “Concentration of A1 Drug” value ([1]; title: oral 2 mg/kg, 0.25 h, individual animals 4-6, 2 mg/kg)?
A: Its value is 572 ng/mL and 1021 ng/mL.

Q: What about the “Concentration of A1 Drug” value ([1]; title: oral 2 mg/kg, 0.75 h, individual animals 4-6, 2 mg/kg) of the same compound?
A: Its value is 113 ng/mL and 216 ng/mL.

Q: What about the “Concentration of A1 Drug” value ([1]; title: oral 2 mg/kg, 2.00 h, individual animals 4-6, 2 mg/kg) of the same compound?
A: Its value is 39.5 ng/mL and 60.6 ng/mL.

Q: And the “Concentration of A1 Drug” value ([1]; title: oral 2 mg/kg, 4.00 h, individual animals 4-6, 2 mg/kg)?
A: The value was 8.60 ng/mL and 11.5 ng/mL and 5.20 ng/mL.

Q: And the “Concentration of A1 Drug” value ([1]; title: oral 2 mg/kg, 8.00 h, individual animals 4-6, 2 mg/kg)?
A: Its value is 8.70 ng/mL and 2.10 ng/mL and 1.10 ng/mL.

Q: And the “Concentration of A1 Drug” value ([1]; title: oral 2 mg/kg, 24.0 h, individual animals 4-6, 2 mg/kg)?
A: The value was 0.800 ng/mL and 0.500 ng/mL.

Q: And the EC50 (S1P2)?
A: The EC50 was > 10 µM.

Q: And the EC50 (S1P5)?
A: Its EC50 is 0.12 µM.

Q: What about the EC50 (S1P4) of the same compound?
A: Its EC50 is > 10 µM.

Q: What about the “selectivity for different S1P receptor subtypes” value (S1P receptor) of the same compound?
A: Its value is “good selectivity”.
